Data published in patent US20250304933A1, “INDUCIBLE RECOMBINASE SYSTEMS” (priority 2022, published 2025).

Assays:
[1] = test system: Npm1/Flt3-ITD cKIT+ cells; assay: in vitro culture of cKIT+ leukemic cells with 4-OHT (PrestoBlue); format: cell-based, mice; conditions: 72 hours of culture
[2] = test system: Npm1GL hematopoietic cells; assay: cell number of Dre-induced mutant Npm1 GOLDI-Lox hematopoietic cells after 4-hydroxytamoxifen; format: cell-based, mice; conditions: 7 days post administration
Method: FIGS. 30A-30D show the development of a GOLDI-Lox On/Off Dre/Cre Npm1 Mouse. […] A subset of diseased mice were then treated with tamoxifen (TAM) to induce Cre and lead to reversion of the mutant Npm1 allele back to WT Npm1; measured levels of survival (left panel), cKIT^+ cells in the peripheral blood (middle panel), and WBC counts (right panel) in mice that received TAM compared to vehicle treated mice are shown.
Based on previous data on mutant NPM1, it was expected that cells that lose the mutant Npm1 protein undergo differentiation and eventual apoptosis, ultimately leading to a loss of cell number. To validate the reversion of the mutant Npm1 GOLDI-Lox allele to WT, Dre-induced mutant Npm1 GOLDI-Lox hematopoietic cells were exposed to 4-hydroxytamoxifen (40HT) for Cre-recombinase induction, and cell number measured 7 days post 40HT administration using Cre^−; Npm1GL cells as a negative control.

[3] = test system: mice transplanted with UbcCreER-Jak2^RL bone marrow exhibiting active MPN; assay: 6-week in vivo drug trial in competitive transplant MPN mice; conditions: for Hct / spleen weights (mean) / mutant cell fraction in LSK stem-cell enriched population (mean): conclusion of 6-week trial; for spleen weights (mean): ruxolitinib 60 mg/kg P.O. twice daily, CHZ868 30 mg/kg P.O. daily; for CD45.2 chimerism in peripheral blood: 6-week trial; for mutant cell fraction in LSK stem-cell enriched population (mean): bone marrow
Method: (§1) Peripheral blood was isolated by submandibular bleeds.
Investigators were not blinded to the identity of mice or samples. Mice were treated for a total of 6 weeks before timed sacrifice and marrow/spleen harvested as above.

[4] = test system: DreSTAPL (Dre split with HCV-derived NS3 protease); assay: DreStaPL recombination reporter assay in infected Lin- bone marrow (Rosa26:RLTG); format: cell-based, mice; conditions: 10 μM
Method: (§2) FIGS. 27A-27I show inducible recombinases for modeling Flt3 activation.
(§3) MSCV retroviral vectors were transfected with pCL-Eco packaging vector into 293T-17 cells using JetPRIME following the manufacturers protocol (5 ug each, 1:1). Conditioned media was collected 72 hours later and passed through a 0.45 uM filter. Virus was either used fresh or stored at −80 C for later usage. For viral infection in FIG. 4 and Extended Data 8, lineage negative bone marrow was isolated using the Mouse Hematopoietic Progenitor Cell Isolation Kit (StemCell 19856) and plated over retronectin coated 6 or 12 well plates for 2 hours in RPMI+10% FBS supplemented with Penicillin/Streptomycin, 20 ng SCF, 10 ng IL6 and 10 ng IL3. Virus and 100×HEPES was added to the wells, then plates were spun for 1 hour at 800×G at 37 C. Following spin, small molecule ligands used to activate recombinases were added to a final concentration as indicated ethanol (v/v 0.0015%), DMSO (v/v 0.1%), 4-hydroxytamoxifen (4-OHT; 400 nM), trimethoprim (TMP; 1 uM) or grazoprevir (GZV, 10 uM). Cells were harvested for flow cytometric analysis 48 hours post infection. For viral infection followed by transplantation in Extended Data 8, a similar approach was utilized with the following modifications. Donor mice were treated with 5-FU 6 days prior to harvest. […]

[5] = test system: DreStaPL-ODC Flt3^GL-ITD mice; assay: complete blood counts of DreStaPL-ODC x Flt3^GL-ITD mice after GZV; format: in vivo; conditions: crossed to Flt3^GL-ITD, 6-8 weeks post treatment
Method: Peripheral blood was isolated by submandibular bleeds. Complete blood counts were assessed on a ProCyte by IDEXX. For flow cytometry analysis whole blood was lysed with RBC lysis buffer (Biolegend). […] For whole bone marrow was isolation, the femur, hip and tibia were dissected and cleaned.

Jak2^V617F LSKs and MEPs = conditions: 7 days of treatment; for down-regulation of STAT5 target gene expression, NES: vs MPN control
Method: Lineage-depleted marrow was isolated and then TdTonmato+ (Jak2^RL knock-in) or GFP+ (Jak2^RL knock-out) LSKs and MEPs were sorted on a FACSAria III directly into Trizol LS (Invitrogen) and stored at −80° C. until processing. RNA was subsequently isolated using the Direct-Zol Microprep Kit (Zymo Research, R2061) according to manufacturer's protocol and quantified using the Agilent High Sensitivity RNA ScreenTape (Agilent 5067-5579) on an Agilent 2200 TapeStation. cDNA was generated from 1 ng of input RNA using the SMART-Seq HT Kit (Takara 634455) at half reaction volume followed by Nextera XT (Illumina FC-131-1024) library preparation. cDNA and tagmented libraries were quantified using High Sensitivity D5000 ScreenTape (5067-5592) and High Sensitivity D1000 ScreenTape respectively (5067-5584). Libraries were sequenced on a NovaSeq at the Integrated Genomics Operation (IGO) at MSKCC.
Statistical analyses were performed using Student's t-test (normal distribution) using GraphPad Prism version 6.Oh (GraphPad Software, San Diego, CA). Kaplan-Meier curves were determined using the log-rank test. P<0.05 was considered statistically significant. The number of animals, cells and experimental replication can be found in the respective figure legends. FASTQ files were demultiplexed using a java script from Takara. FASTQ files were mapped and transcript counts were enumerated using STAR (genome version mm10 and transcript version ensembl XX). Counts were input into R and RNA-sequencing analysis using DESeq2. Gene set enrichment analysis was performed using the fgsea package with genesets extracted from the msigdbr package. Single sample gene set enrichment analysis was performed using the gsva package. Figures were generated using ggplot2 and tidyhetamps packages.

[6] = test system: UbcCreER-Jak2^RL MPN mice; assay: bone marrow myeloid progenitor frequencies by flow cytometry after 7 days of treatment; format: in vivo
Ybx1 = Ybx1 quantitative RT-PCR in cKit+ bone marrow after 7 days of treatment; format: in vivo, mice; conditions: sorted cKit+ cells
Method: Total RNA was extracted from magnetic-bead isolated cKit+ bone marrow (Miltenyi Biotec) using the Direct-zol RNA extraction kit (Zymo) per manufacturers' protocols respectively. Complementary DNA was then reverse transcribed using the Verso cDNA Synthesis kit (ThermoFisher Scientific). Ybx1 expression was evaluated by quantitative reverse-transcription (qRT) PCR using Taqman probes purchased from ThermoFisher (Mm00850878_g1) on the RealPlex thermocycler (ThermoFisher Scientific, Fairlawn, NJ).

[7] = test system: mice transplanted with Dre-electroporated Ubc:CreER-Jak2^RL bone marrow exhibiting MPN; assay: Jak2^RL knock-in/knock-out competitive transplant, tamoxifen-induced Jak2^V617F deletion; format: in vivo; conditions: within 3-6 weeks following tamoxifen treatment, vs MPN control
Excerpt: as §1

[8] = test system: Jak2^V617F/Tet2^f/f mutant cells; assay: Jak2^V617F/Tet2^f/f competitive transplant, tamoxifen at 9 weeks post-transplant; format: in vivo, mice; conditions: double-mutant cells
Excerpt: Dre mRNA was purchased from TriLink Biotechnologies (San Diego, CA) and electroporation carried out using the Neon Transfection System (ThermoScientific) per the manufacturer's protocol. Specifically, bone marrow donor cells were isolated from limb bones into PBS (pH 7.2) containing 2% fetal calf serum via centrifugation. After red blood cell lysis, single-cell suspensions were depleted of lineage-committed hematopoietic cells using a Lineage Cell Depletion Kit according to manufacturer's protocol (EasySep™, StemCell Technologies, Inc.). 2.5-3.0×10^6 lineage-depleted bone marrow was then washed in PBS and then resuspended in 135 uL Buffer T to which 15 μL of Dre mRNA (at 1 μg/μL) was quickly added and electroporated at the following conditions: 1700V for 20 ms×1 pulse. The cells were then pipetted into penicillin-streptomycin free StemSpan SFEM medium with thrombopoietin (TPO; 20 ng/mL; PeproTech) and stem cell factor (SCF; 20 ng/mL; PeproTech), cultured for two hours, and then subsequently harvested and washed/resuspended in phosphate buffered saline (PBS) and transplanted via lateral tail vein injection into lethally irradiated (900cGy) 6-8 week old C57BL/6J recipient mice at approximately 4×10^5 cells per recipient along with 50,000 un-electroporated whole bone marrow support cells. […]

[9] = test system: Npm1^c-Lox-Flt3^GL-ITD leukemia; assay: long term TAM treatment of mice engrafted with Npm1^Lox-C Flt3^GL-ITD leukemia; format: in vivo; conditions: TAM-chow diet
Excerpt: FIGS. 19A-19H show reversible Flt3 mutagenesis in acute myeloid leukemia. Secondary transplant of Npm1^Lox-C Flt3^GL-ITD (20,000 cells) or Idh2^Lox-R140Q Flt3^GL-ITD (500,000) from FIGS. 18A-18E were engrafted into lethally irradiated secondary recipients with 500,000 CD45.1 WT cells. […]

[10] = test system: mutant Npm1 GOLDI-Lox Nras^G12D disease; assay: bone marrow transplant of Dre-induced mutant Npm1 GOLDI-Lox / Nras^G12D, TAM vs vehicle; format: in vivo; conditions: compared to vehicle treated mice
Method: FIGS. 30A-30D show the development of a GOLDI-Lox On/Off Dre/Cre Npm1 Mouse.
A bone marrow transplant of a Dre-induced mutant Npm1 GOLDI-Lox expressing a co-mutant Nras^G12D allele immediately after Dre induction was performed, and mice were monitored for disease development (FIG. 30D, left panel). Upon development of disease, a cohort (n=5) of mice was treated with tamoxifen (TAM) to induce Cre and lead to reversion of the mutant Npm1 allele back to WT Npm1.

[11] = test system: Cre-negative Jak2^RL MPN bone marrow cells; conditions: mouse, in vivo
Excerpt: FIGS. 9D-9E show total bone marrow (BM) cellularity (femur) (FIG. 9D) and Myeloid progenitor (Lineage−cKit+Sca1−) (FIG. 9E) frequencies of MPN (CTRL) vs. tamoxifen (TAM) treated mice transplanted with Cre-negative JAK2^RL knock-in cells in competition with CD45.1 support at timed sacrifice 15 weeks (n=3-4 each; mean±s.e.m).
Jak2^RL and Jak2^RL/Tet2^f/f lines were crossed to UbcCreER tamoxifen-inducible Cre lines and RLTG dual-recombinase reporter lines.^17,24 Primary recipient mice transplanted with Dre mRNA-recombined UbcCreER-Jak2^RL or UbcCreER-Jak2^RL/Tet2^f/f bone marrow cells were bled every 3-4 weeks post-transplant to monitor disease status. Peripheral blood was isolated by submandibular bleeds. Complete blood counts were assessed on a ProCyte Dx (IDEXX Laboratories, Westbrook, ME) per manufacturer's instruction. […] To induce Cre and delete Jak2^V617F, mice were treated with tamoxifen (TAM; purchased from MedChemExpress) 100 mg/kg daily (dissolved in corn oil) by oral gavage ×4 followed by 14 days of TAM chow approx. 80 mg/kg daily (ENVIGO). […] For terminal tissue isolation, mice were euthanized with CO2 asphyxiation, and tissues were dissected and fixed with 4% paraformaldehyde for histopathological analysis. […] Bone marrow cell numbers were determined via an automatic cell counter (ViCell Blu, Beckman Coulter). […]

[12] = test system: FlpoDHFR in Npm1^Frt-C Flt3^Frt-ITD bone marrow; conditions: FlpoDHFR delivered as a retrovirus in a transplant model
Method: as §2, §3

4-hydroxytamoxifen [4-OHT]
cell number, Ubc:CreERT2 Npm1^c-Lox-Flt3^GL-ITD cells [1]: reduction in cell number
cell number, FlpoERT2 Npm1^c-Frt Flt3^Frt-ITD cells ([1]; control without Cre-deletable allele): not
cell number, Cre+; Npm1GL cells [2]: significant loss of cells
cell number, Cre-; Npm1GL control cells ([2]; negative control): not observed

CC(=O)Nc1cc(Oc2ccc3c(nc(Nc4ccc(F)cc4F)n3C)c2C)ccn1 [CHZ868]
MEP, GMP, and LSK mutant allele burden ([3]; compared to vehicle/ruxolitinib-treated mice, not to the extent seen with Jak2^V617F deletion): Significant reductions
Hct [3]: 50.3%
spleen weights (mean) [3]: 76 mg

C=C[C@@H]1C[C@]1(NC(=O)[C@@H]1C[C@@H](Oc2ncc(OC)c3ccc(Cl)cc23)CN1C(=O)[C@@H](NC(=O)OC(C)(C)C)C(C)(C)C)C(=O)NS(=O)(=O)C1CC1 [asunaprevir]
recombination upon inhibition of NS3 proteolytic activity [4]: efficient recombination

C=C[C@@H]1C[C@]1(NC(=O)[C@@H]1C[C@@H]2CN1C(=O)[C@H](C(C)(C)C)NC(=O)O[C@@H]1C[C@H]1CCCCCc1nc3ccc(OC)cc3nc1O2)C(=O)NS(=O)(=O)C1CC1.O [grazoprevir]
recombination upon inhibition of NS3 proteolytic activity [4]: efficient recombination
peripheral blood counts with GZV treatment, CAG:DreStaPL-ODC mice [5]: monocytosis, mild anemia and mild thrombocytopenia
peripheral blood counts with GZV treatment, Vav1:DreStaPL-ODC mice [5]: no significant differences

N#CC[C@H](C1CCCC1)n1cc(-c2ncnc3[nH]ccc23)cn1 [ruxolitinib]
down-regulation of STAT5 target gene expression, NES (Jak2^V617F LSKs and MEPs; GSEA of RNA-seq): −0.913
erythroid pathway gene expression (heme metabolism), NES (Jak2^V617F LSKs and MEPs; GSEA of RNA-seq, LSKs): 1.45
GMP frequency [6]: 6.66%
MEP frequency [6]: 35.3%
CD45.2 chimerism in peripheral blood [3]: 37.7%
mutant cell fraction in LSK stem-cell enriched population (mean) [3]: 87.6%
Hct [3]: 85.8%
spleen weights (mean) [3]: 235 mg
expression of Ybx1, Rel. exp (Ybx1): 2.52

CC/C(=C(\c1ccccc1)c1ccc(OCCN(C)C)cc1)c1ccccc1 [tamoxifen]
down-regulation of STAT5 target gene expression, NES (Jak2^V617F LSKs and MEPs; GSEA of RNA-seq): −1.51
MAPK activity by RNA-Seq, NES (Jak2^V617F LSKs and MEPs; GSEA of down regulation of KRAS signaling targets, MEPs, vs vehicle): 1.35
GMP frequency [6]: 20.1%
MEP frequency [6]: 14.2%
CD45.2 chimerism in peripheral blood [3]: 17.3%
mutant cell fraction in LSK stem-cell enriched population (mean) [3]: 28.7%
spleen weights (mean) [3]: 125 mg
expression of Ybx1, Rel. exp (Ybx1): 0.42
WBC (mean) [7]: 7.59 K/uL
hematocrit (mean) [7]: 41.6%
platelet (mean) [7]: 749 K/uL
hematologic parameters [8]: normalization
peripheral blood mutant cell fraction [8]: reductions
overall survival [9]: increase in overall survival
WBC counts [10]: significant decrease
cKIT+ cells in the peripheral blood [10]: significant decrease
survival [10]: no significant difference
phenotypes observed with Ubc:CreER-Jak2^V617F deletion, with tamoxifen in the absence of Jak2^V617F reversal [11]: not observed

COc1cc(Cc2cnc(N)nc2N)cc(OC)c1OC [trimethoprim]
disease induction in the Flp Flt3/Npm1 model [12]: capable of inducing aggressive AML
